Measured values published in US8063048B2, “Acetylenyl-pyrazolo-pyrimidine derivatives” (Hoffmann-La Roche Inc., priority 2005, dated 2011).

Row | SMILES | melting point
1 | NS(=O)(=O)c1ccc(C#Cc2cnn3c(C(F)(F)F)cc(-c4ccc(C(F)(F)F)cc4)nc23)c(F)c1 [Example 45, 3-Fluoro-4-[7-trifluoromethyl-5-(4-trifluoromethyl-phenyl)-pyrazolo[1,5-a]pyrimidin-3-ylethynyl]-benzenesulfonamide] | 230 to 232 °C
2 | N#CCCNS(=O)(=O)c1cccc(C#Cc2cnn3c(C(F)(F)F)cc(-c4ccc(C(F)(F)F)cc4)nc23)c1 [Example 47, N-(2-Cyano-ethyl)-3-[7-trifluoromethyl-5-(4-trifluoromethyl-phenyl)-pyrazolo[1,5-a]pyrimidin-3-ylethynyl]-benzenesulfonamide] | 174 to 182 °C
3 | NS(=O)(=O)c1ccc(C#Cc2cnn3c(C(F)F)cc(-c4ccc(C(F)(F)F)cc4)nc23)c(F)c1 [Example 48, 4-[7-Difluoromethyl-5-(4-trifluoromethyl-phenyl)-pyrazolo[1,5-a]pyrimidin-3-ylethynyl]-3-fluoro-benzenesulfonamide] | 230 to 232 °C
4 | NS(=O)(=O)c1ccc(C#Cc2cnn3c(C(F)F)cc(-c4ccc(C(F)(F)F)cc4)nc23)cc1 [Example 49, 4-[7-Difluoromethyl-5-(4-trifluoromethyl-phenyl)-pyrazolo[1,5-a]pyrimidin-3-ylethynyl]-benzenesulfonamide] | 254 °C
5 | NS(=O)(=O)c1cc(C#Cc2cnn3c(C(F)(F)F)cc(-c4ccc(C(F)(F)F)cc4)nc23)ccc1F [Example 50, 2-Fluoro-5-[7-trifluoromethyl-5-(4-trifluoromethyl-phenyl)-pyrazolo[1,5-a]pyrimidin-3-ylethynyl]-benzenesulfonamide] | 254 to 255 °C
6 | CCOc1cc(-c2cc(C(F)(F)F)n3ncc(C#Cc4ncc(S(=O)(=O)NC(C)(C)CO)s4)c3n2)ccc1C(F)(F)F [Example 51, 2-[5-(3-Ethoxy-4-trifluoromethyl-phenyl)-7-trifluoromethyl-pyrazolo[1,5-a]pyrimidin-3-ylethynyl]-thiazole-5-sulfonic acid (2-hydroxy-1,1-dimethyl-ethyl)-amide] | 209 to 211 °C
7 | CC(O)c1ccc(C#Cc2cnn3c(C(F)(F)F)cc(-c4ccc(C(F)(F)F)cc4)nc23)cc1 (stereo not drawn) [Example 52, 1-{4-[7-Trifluoromethyl-5-(4-trifluoromethyl-phenyl)-pyrazolo[1,5-a]pyrimidin-3-ylethynyl]-phenyl}-ethanol] | 175 to 178 °C
8 | Cc1nc(C#Cc2cnn3c(C(F)(F)F)cc(-c4ccc(C(F)(F)F)cc4)nc23)sc1S(=O)(=O)NC(C)(C)CO [Example 53, 4-Methyl-2-[7-trifluoromethyl-5-(4-trifluoromethyl-phenyl)-pyrazolo[1,5-a]pyrimidin-3-ylethynyl]-thiazole-5-sulfonic acid (2-hydroxy-1,1-dimethyl-ethyl)-amide] | 216 to 218 °C
9 | Cc1nc(C#Cc2cnn3c(C(F)(F)F)cc(-c4ccc(C(F)(F)F)cc4)nc23)sc1S(N)(=O)=O [Example 54, 4-Methyl-2-[7-trifluoromethyl-5-(4-trifluoromethyl-phenyl)-pyrazolo[1,5-a]pyrimidin-3-ylethynyl]-thiazole-5-sulfonic acid amide] | 245 to 246 °C
10 | COc1ccc(C#Cc2cnn3c(C(F)(F)F)cc(-c4ccc(C(F)(F)F)cc4)nc23)cn1 [Example 56, 3-(6-Methoxy-pyridin-3-ylethynyl)-7-trifluoromethyl-5-(4-trifluoromethyl-phenyl)-pyrazolo[1,5-a]pyrimidine] | 166 to 168 °C
11 | COc1cncc(C#Cc2cnn3c(C(F)(F)F)cc(-c4ccc(C(F)(F)F)cc4)nc23)c1 [Example 57, 3-(5-Methoxy-pyridin-3-ylethynyl)-7-trifluoromethyl-5-(4-trifluoromethyl-phenyl)-pyrazolo[1,5-a]pyrimidine] | 232 to 234 °C
12 | Oc1cncc(C#Cc2cnn3c(C(F)(F)F)cc(-c4ccc(C(F)(F)F)cc4)nc23)c1 [Example 58, 5-[7-Trifluoromethyl-5-(4-trifluoromethyl-phenyl)-pyrazolo[1,5-a]pyrimidin-3-ylethynyl]-pyridin-3-ol] | 258 to 260 °C

Next, values leading:

Row | melting point | SMILES
13 | 265 to 267 °C | Cc1ccc(C#Cc2cnn3c(C(F)F)cc(-c4ccc(C(F)(F)F)cc4)nc23)cc1S(N)(=O)=O [Example 60, 5-[7-Difluoromethyl-5-(4-trifluoromethyl-phenyl)-pyrazolo[1,5-a]pyrimidin-3-ylethynyl]-2-methyl-benzenesulfonamide]
14 | 184 to 186 °C | Cc1ccc(C#Cc2cnn3c(C(F)F)cc(-c4ccc(C(F)(F)F)cc4)nc23)cc1S(=O)(=O)NCCO [Example 61, 5-[7-Difluoromethyl-5-(4-trifluoromethyl-phenyl)-pyrazolo[1,5-a]pyrimidin-3-ylethynyl]-N-(2-hydroxy-ethyl)-2-methyl-benzenesulfonamide]
15 | 144 to 145 °C | FC(F)(F)c1ccc(-c2cc(C(F)(F)F)n3ncc(C#Cc4ccccc4)c3n2)cc1 [Example 62, 3-Phenylethynyl-7-trifluoromethyl-5-(4-trifluoromethyl-phenyl)-pyrazolo[1,5-a]pyrimidine]
16 | 225 to 228 °C | NS(=O)(=O)c1ccc(C#Cc2cnn3c(C4CC4)cc(-c4ccc(Cl)cc4)nc23)cc1 [Example 63, 4-[5-(4-Chloro-phenyl)-7-cyclopropyl-pyrazolo[1,5-a]pyrimidin-3-ylethynyl]-benzenesulfonamide]
17 | 204 to 207 °C | CC(C)(CO)NS(=O)(=O)c1cnc(C#Cc2cnn3c(C4CC4)cc(-c4ccc(Cl)cc4)nc23)s1 [Example 64, 2-[5-(4-Chloro-phenyl)-7-cyclopropyl-pyrazolo[1,5-a]pyrimidin-3-ylethynyl]-thiazole-5-sulfonic acid (2-hydroxy-1,1-dimethyl-ethyl)-amide]
18 | 202 to 204 °C | CC(C)(CO)NS(=O)(=O)c1cccc(C#Cc2cnn3c(C4CC4)cc(-c4ccc(Cl)cc4)nc23)c1 [Example 65, 3-[5-(4-Chloro-phenyl)-7-cyclopropyl-pyrazolo[1,5-a]pyrimidin-3-ylethynyl]-N-(2-hydroxy-1,1-dimethyl-ethyl)-benzenesulfonamide]
19 | 252 to 254 °C | NS(=O)(=O)c1cncc(C#Cc2cnn3c(C4CC4)cc(-c4ccc(Cl)cc4)nc23)c1 [Example 66, 5-[5-(4-Chloro-phenyl)-7-cyclopropyl-pyrazolo[1,5-a]pyrimidin-3-ylethynyl]-pyridine-3-sulfonic acid amide]
20 | 230 to 231 °C | CC(C)(CO)NS(=O)(=O)c1cncc(C#Cc2cnn3c(C4CC4)cc(-c4ccc(Cl)cc4)nc23)c1 [Example 67, 5-[5-(4-Chloro-phenyl)-7-cyclopropyl-pyrazolo[1,5-a]pyrimidin-3-ylethynyl]-pyridine-3-sulfonic acid (2-hydroxy-1,1-dimethyl-ethyl)-amide]
21 | 204 to 206 °C | CC(CO)(CO)NS(=O)(=O)c1cncc(C#Cc2cnn3c(C4CC4)cc(-c4ccc(Cl)cc4)nc23)c1 [Example 68, 5-[5-(4-Chloro-phenyl)-7-cyclopropyl-pyrazolo[1,5-a]pyrimidin-3-ylethynyl]-pyridine-3-sulfonic acid (2-hydroxy-1-hydroxymethyl-1-methyl-ethyl)-amide]
